Data from publication PMC9886271 (Drug metabolism and pharmacokinetics, 2022).
Entries after “also recorded” stand apart in the source; their conditions may differ. Structures can show the parent of a compound that is named as a salt.

What was measured:
[1] = Plasma pharmacokinetics after single i.v. injection; details: for AUC0–8h (metabolite) / Cmax (metabolite) / Tmax (metabolite): metabolite in plasma after 2.0 mg/kg i.v. of the parent drug
[2] = Tissue distribution after single i.v. injection; details: for Metabolite Tissue AUC0–8h, Brain / Metabolite Tissue AUC0–8h, Heart / Metabolite Tissue AUC0–8h, Kidney / Metabolite Tissue AUC0–8h, Liver / Metabolite Tissue AUC0–8h, Lung / Metabolite Tissue AUC0–8h, Spleen: after 2.0 mg/kg i.v. of the parent drug; for rank order of the extent of exposure of the organs to the metabolite: after i.v. parent drug; for rank order of the extent of exposure of the organs to the parent drug: i.v. administration
[3] = tested on: postoperative mechanical hypersensitivity in mice; assay: Postoperative pain model; details: post-operative treatment, 3 mg/kg i.p., once daily for 4 days; for effect on postoperative mechanical hypersensitivity: 3 mg/kg
[4] = tested on: human liver microsomes (HLM); details: HLM; for Vmax, best fit value: formation of EDDP/d6-EDDP, mean ± S.E.
[5] = tested on: mouse liver microsomes (MLM); details: MLM; for Vmax, best fit value: formation of EDDP/d6-EDDP, mean ± S.E.
Swiss mice = details: intraperitoneal (i.p.); cited from earlier work
[6] = human, pH 7.4
[7] = In vivo toxicity, Up-and-Down method, single i.v. dose via tail vein; details: male, CD-1, mouse, iv
[8] = male, CD-1, mouse, pH 7.4

SMILES: [2H]C([2H])([2H])C1CC(c2ccccc2)(c2ccccc2)C(=CC)N1C([2H])([2H])[2H] (stereo not drawn) [d6-EDDP]
- plasma AUC0–8h of d6-EDDP, fold lower than AUC0–8h of EDDP ([1]; after i.v. parent drug): 2 fold
- plasma Cmax of d6-EDDP, fold lower than Cmax of EDDP ([1]; after i.v. parent drug): 5 fold
- AUC0–8h (metabolite) [1]: 138 ± 25 ng·h/mL
- Cmax (metabolite) [1]: 48 ± 7 ng/mL
- Tmax (metabolite) [1]: 19.8 ± 8.4 min
- concentration of the metabolite in the brain ([2]; after 2.0 mg/kg i.v. d9-methadone, every time point): below the lower limit of quantification
- Metabolite Tissue AUC0–8h, Brain [2]: <LLOQ^§
- Metabolite Tissue AUC0–8h, Heart [2]: 1243 ± 254 ng·h/g
- Metabolite Tissue AUC0–8h, Kidney [2]: 1562 ± 207 ng·h/g
- Metabolite Tissue AUC0–8h, Liver [2]: 4375 ± 513 ng·h/g
- Metabolite Tissue AUC0–8h, Lung [2]: 9886 ± 614 ng·h/g
- Metabolite Tissue AUC0–8h, Spleen [2]: 411 ± 33 ng·h/g
- rank order of the extent of exposure of the organs to the metabolite [2]: lungs > liver > kidney ≈ heart > spleen

SMILES: [2H]C([2H])([2H])CC(=O)C(CC(C)N(C([2H])([2H])[2H])C([2H])([2H])[2H])(c1ccccc1)c1ccccc1 (racemic) [d9-methadone, (±)-d9-methadone]
- development of analgesic tolerance [3]: no development of the apparent analgesic tolerance
- effect on postoperative mechanical hypersensitivity [3]: alleviated hypersensitivity after each systemic injection; also recorded: significantly relieved postoperative mechanical hypersensitivity
- deuteration effect on Vmax (HVmax/DVmax) [4]: 2.5
- Vmax, best fit value [4]: 438 ± 27 pmol·min^−1·mg of protein^−1
- rank order of the extent of exposure of the organs to the parent drug [2]: lungs > kidneys ≈ liver > spleen > heart > brain
- deuteration effect on Vmax (HVmax/DVmax) [5]: 2.5
- Vmax, best fit value [5]: 1033 ± 45 pmol·min^−1·mg of protein^−1

SMILES: CC=C1N(C)C(C)CC1(c1ccccc1)c1ccccc1 (stereo not drawn) [EDDP, 2-ethylidene-1,5-dimethyl-3,3,-diphenylpyrrolidine]
- AUC0–8h (metabolite) [1]: 257 ± 29 ng·h/mL
- Cmax (metabolite) [1]: 233 ± 28 ng/mL
- Tmax (metabolite) [1]: 8.4 ± 6 min
- Metabolite Tissue AUC0–8h, Brain [2]: 8.96 ± 5.26 ng·h/g
- Metabolite Tissue AUC0–8h, Heart [2]: 2155 ± 144 ng·h/g
- Metabolite Tissue AUC0–8h, Kidney [2]: 2815 ± 226 ng·h/g
- Metabolite Tissue AUC0–8h, Liver [2]: 5608 ± 218 ng·h/g
- Metabolite Tissue AUC0–8h, Lung [2]: 9672 ± 856 ng·h/g
- Metabolite Tissue AUC0–8h, Spleen [2]: 622 ± 45 ng·h/g
- rank order of the extent of exposure of the organs to the metabolite [2]: lungs > liver > kidney ≈ heart > spleen

SMILES: CCC(=O)C(CC(C)N(C)C)(c1ccccc1)c1ccccc1 (racemic) [methadone, (±)-Methadone hydrochloride, reference compound]
- LD50 (Swiss mice): 41 mg/kg
- effect on postoperative mechanical hypersensitivity [3]: completely ineffective
- effect on postoperative mechanical hypersensitivity ([3]; listed as Methadone): unable to reduce the postoperative mechanical hypersensitivity
- Vmax, best fit value [4]: 1116 ± 17 pmol·min^−1·mg of protein^−1
- Km at 20 min [6]: 82.9 ± 3.7 µM
- rank order of the extent of exposure of the organs to the parent drug [2]: kidneys ≈ lungs > spleen > liver > heart > brain
- LD50 at 20 min [7]: 11.6 mg/kg
- Km at 10 min [8]: 53.5 ± 5.1 µM
- Vmax, best fit value [5]: 2631 ± 121 pmol·min^−1·mg of protein^−1
